Among the test systems are OVCAR-3 ovarian; A498 renal; SNB-75 CNS; CCRF-CEM leukemia; MDA-N; MDA-MB-231 breast; SK-OV-3 ovarian; SW-620 colon; RPMI-8226 leukemia; NCI-H226 lung.
Holding throughout (experiment): NCI anticancer screen, dose series, 48 h

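48-hour exposure; five concentrations; linearly interpolated endpoints. TGI: concentration producing complete growth inhibition.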 Where only a bound is given, the exact number is not on record here.

This passage reports TGI results from PubChem BioAssay (NCI).

Turning to `O=C(O)C(F)(F)C(F)(F)C(F)(F)C(F)(F)C(=O)O`, the TGI with OVCAR-3 ovarian, with A498 renal, with SNB-75 CNS, in the test with CCRF-CEM leukemia, with MDA-N and with MDA-MB-231 breast was above 100 µM throughout. Moreover, the TGI in the test with SK-OV-3 ovarian, in the test on SW-620 colon, in the test with RPMI-8226 leukemia and in the test on NCI-H226 lung was above 100 µM in each case.

For `COC(=O)C1=COC(C)C2C[n+]3ccc4c([nH]c5ccccc54)c3CC12` (configuration not stated), the TGI in the test with OVCAR-3 ovarian, in the test with A498 renal, in the test with SNB-75 CNS, in the test with CCRF-CEM leukemia, in the test on MDA-N and in the test on MDA-MB-231 breast was above 100 µM throughout. Further, the TGI in the test with SK-OV-3 ovarian, in the test on SW-620 colon, in the test with RPMI-8226 leukemia and in the test on NCI-H226 lung was above 100 µM in each case.

With `COc1ccc(C[C@H]2NC(=O)/C=C/C[C@@H]([C@H](C)[C@H]3O[C@@H]3c3ccccc3)OC(=O)[C@H](CC(C)C)OC(=O)[C@H](C)CNC2=O)cc1`, the TGI in the test on OVCAR-3 ovarian was above 0.0001 µM; with A498 renal it was 8.37e-05 µM; with SNB-75 CNS, above 9.19e-05 µM; with CCRF-CEM leukemia, above 6.99e-05 µM; in the test on MDA-N it was 2.32e-05 µM; in the test with MDA-MB-231 breast it was above 8.79e-05 µM. For the same compound, the TGI in the test on SK-OV-3 ovarian is above 0.0001 µM; with SW-620 colon, above 0.0001 µM; with RPMI-8226 leukemia, above 0.0001 µM; in the test with NCI-H226 lung it was above 7.26e-05 µM.

For the compound `Cc1ccc(S(=O)(=O)N(CC(O)c2ccccc2)c2ccccc2F)cc1` (configuration not stated), the TGI with OVCAR-3 ovarian amounted to 25 µM; in the test on A498 renal, 36 µM; in the test on SNB-75 CNS, 30.3 µM; with CCRF-CEM leukemia it was 64.5 µM; in the test on MDA-N it was 33.8 µM; in the test on MDA-MB-231 breast it was 36.6 µM. For the same compound, the TGI in the test with SK-OV-3 ovarian was found to be 38.4 µM; with SW-620 colon, 39.9 µM; with RPMI-8226 leukemia, 39 µM; in the test with NCI-H226 lung, 48.7 µM.

With `CC(=O)N1CC(C)(C)c2c1cc(C)c(O)c2C`, the TGI in the test with OVCAR-3 ovarian, in the test on A498 renal, in the test with CCRF-CEM leukemia, with MDA-N, with MDA-MB-231 breast and in the test on SK-OV-3 ovarian was above 100 µM each time. The TGI with SW-620 colon, with RPMI-8226 leukemia and with NCI-H226 lung was above 100 µM throughout.

With `O=C(O)CCC(C(=O)O)N1C(=O)c2ccccc2C1=O` (configuration not stated), the TGI in the test with OVCAR-3 ovarian, in the test with A498 renal, with SNB-75 CNS, with CCRF-CEM leukemia, with MDA-N and in the test on MDA-MB-231 breast was above 100 µM each time. Further, the TGI in the test with SK-OV-3 ovarian, in the test on SW-620 colon, with RPMI-8226 leukemia and in the test with NCI-H226 lung was above 100 µM each time.

As to `O=c1c2ncn(C3CCCCO3)c2n(-c2ccccc2)c(=S)n1-c1ccccc1` (configuration not stated), the TGI was above 81.3 µM with OVCAR-3 ovarian; 89.6 µM in the test on A498 renal; 20.7 µM with SNB-75 CNS; above 100 µM in the test on CCRF-CEM leukemia; above 100 µM in the test on MDA-N; 73.5 µM in the test on MDA-MB-231 breast. Moreover, the TGI with SK-OV-3 ovarian was 61 µM; in the test with SW-620 colon it was above 100 µM; in the test with RPMI-8226 leukemia, above 100 µM; with NCI-H226 lung, 86.2 µM.

With `NNC(=O)Cc1cccnc1`, the TGI in the test with OVCAR-3 ovarian, in the test with A498 renal, in the test on SNB-75 CNS, with CCRF-CEM leukemia, in the test with MDA-N and in the test with MDA-MB-231 breast was above 100 µM in each case. In addition, the TGI in the test on SK-OV-3 ovarian, in the test with SW-620 colon and in the test on RPMI-8226 leukemia was above 100 µM each time.

For the compound `O=c1[nH]nc(-c2ccc([N+](=O)[O-])cc2)n1/N=C/c1ccc([N+](=O)[O-])cc1`, the TGI in the test on OVCAR-3 ovarian, with A498 renal, in the test on SNB-75 CNS, with CCRF-CEM leukemia, with MDA-N and in the test on MDA-MB-231 breast was above 100 µM throughout. The TGI in the test with SK-OV-3 ovarian, with SW-620 colon, in the test on RPMI-8226 leukemia and with NCI-H226 lung was above 100 µM in each case.

`COc1ccc(-c2cc(C3CC3)nc(SCC(=O)O)c2C#N)cc1`: the TGI in the test on OVCAR-3 ovarian, in the test on A498 renal, in the test on SNB-75 CNS, with CCRF-CEM leukemia, in the test with MDA-N and with MDA-MB-231 breast was above 100 µM in each case. In addition, the TGI in the test on SK-OV-3 ovarian, with SW-620 colon, in the test on RPMI-8226 leukemia and with NCI-H226 lung was above 100 µM in each case.

Regarding `CC(=O)c1cc2c(s1)C(=O)c1scc(C(C)=O)c1C2=O`, the TGI in the test with OVCAR-3 ovarian came to 0.271 µM; in the test on A498 renal, 4 µM; with SNB-75 CNS, 2.65 µM; in the test on CCRF-CEM leukemia, 0.59 µM; with MDA-N, 0.358 µM; in the test with MDA-MB-231 breast, 0.809 µM. The TGI is 4.86 µM with SK-OV-3 ovarian, 1.08 µM with RPMI-8226 leukemia and 3.57 µM with NCI-H226 lung.

In the case of `CSc1nc2c(c(=O)n1C)N=C(c1ccc(Cl)cc1)CC(c1ccccc1)N2` (configuration not stated), the TGI was above 100 µM in the test with OVCAR-3 ovarian; above 100 µM with A498 renal; 37.2 µM in the test on SNB-75 CNS; 72.6 µM in the test with CCRF-CEM leukemia; 30.3 µM in the test on MDA-N; 27.3 µM in the test with MDA-MB-231 breast. Also, the TGI with SK-OV-3 ovarian is 70.3 µM; in the test with SW-620 colon, above 100 µM; with RPMI-8226 leukemia it was 47.8 µM; in the test on NCI-H226 lung, 42.6 µM.

As to `O=c1[nH]nc(Cc2ccccc2)n1/N=C/c1ccc([N+](=O)[O-])o1`, the TGI was 29.8 µM with OVCAR-3 ovarian; 23.1 µM in the test on A498 renal; 15 µM in the test on SNB-75 CNS; above 100 µM in the test with CCRF-CEM leukemia; 4.83 µM in the test on MDA-N; 18.4 µM in the test with MDA-MB-231 breast. Also, the TGI in the test on SK-OV-3 ovarian is above 100 µM; in the test on SW-620 colon it was above 100 µM; in the test with RPMI-8226 leukemia it was 21.2 µM; in the test with NCI-H226 lung it was 29.5 µM.
